Data: ChEMBL document CHEMBL5252638, “Novel triphenylphosphonium amphiphilic conjugates of glycerolipid type: synthesis, cytotoxic and antibacterial activity, and targeted cancer cell delivery” (RSC Med Chem, 2023)

Tests used:
M-HeLa = assay: Cytotoxicity against human HelaM cells assessed as number of viable cells measured after 48 hrs by MTT based colorimetric assay; type: functional, cell-based
HuTu80 [1] = assay: Cytotoxicity against human HuTu80 cells assessed as number of viable cells measured after 48 hrs by MTT based colorimetric assay; type: functional, cell-based; conditions: HuTu80, 48 h
PANC-1 = assay: Cytotoxicity against human PANC-1 cells assessed as number of viable cells measured after 48 hrs by MTT based colorimetric assay; type: functional, cell-based; conditions: PANC-1, 48 h
A549 = assay: Cytotoxicity against human A549 cells assessed as number of viable cells measured after 48 hrs by MTT based colorimetric assay; type: functional, cell-based; conditions: A549, 48 h
PC-3 = assay: Cytotoxicity against human PC-3 cells assessed as number of viable cells measured after 48 hrs by MTT based colorimetric assay; type: functional, cell-based; conditions: PC-3, 48 h
SK-OV-3 = assay: Cytotoxicity against human SK-OV-3 cells assessed as number of viable cells measured after 48 hrs by MTT based colorimetric assay; type: functional, cell-based; conditions: SK-OV-3, 48 h
[2] = Cytotoxicity against human WI-38 cells assessed as number of viable cells measured after 48 hrs by MTT based colorimetric assay; type: toxicity, cell-based
[3] = Cytotoxicity against human Chang liver cells assessed as number of viable cells measured after 48 hrs by MTT based colorimetric assay; type: toxicity, cell-based
MCF7 = assay: Cytotoxicity against human MCF7 cells assessed as number of viable cells measured after 48 hrs by MTT based colorimetric assay; type: functional, cell-based; conditions: MCF7, 48 h
T98G = assay: Cytotoxicity against human T98G cells assessed as number of viable cells measured after 48 hrs by MTT based colorimetric assay; type: functional, cell-based
HepG2 = assay: Cytotoxicity against human HepG2 cells assessed as number of viable cells measured after 48 hrs by MTT based colorimetric assay; type: functional, cell-based; conditions: HepG2, 48 h
DU-145 = assay: Cytotoxicity against human DU-145 cells assessed as number of viable cells measured after 48 hrs by MTT based colorimetric assay; type: functional, cell-based; conditions: DU-145, 48 h
Homo sapiens [4] = species on record: Homo sapiens; assay: Selectivity index, ratio of IC50 for human Chang liver cells to IC50 for human HelaM cells
Homo sapiens [5] = species on record: Homo sapiens; assay: Selectivity index, ratio of IC50 for human Chang liver cells to IC50 for human MCF7 cells
Homo sapiens [6] = species on record: Homo sapiens; assay: Selectivity index, ratio of IC50 for human Chang liver cells to IC50 for human HuTu80 cells
Homo sapiens [7] = species on record: Homo sapiens; assay: Selectivity index, ratio of IC50 for human Chang liver cells to IC50 for human SK-OV-3 cells
Homo sapiens [8] = species on record: Homo sapiens; assay: Selectivity index, ratio of IC50 for human Chang liver cells to IC50 for human DU-145 cells
HuTu80 [9] = assay: Induction of apoptosis in human HuTu80 cells assessed as viable cells at 5 uM incubated for 48 hrs by annexin V FITC/propidium iodide staining based flow cytometry analysis (reference value: 93.71%); type: functional; conditions: read-out: Activity
HuTu80 [10] = assay: Induction of apoptosis in human HuTu80 cells assessed as viable cells at 10 uM incubated for 48 hrs by annexin V FITC/propidium iodide staining based flow cytometry analysis (reference value: 93.71%); type: functional; conditions: read-out: Activity
HuTu80 [11] = assay: Induction of apoptosis in human HuTu80 cells assessed as early apoptotic cells at 5 uM incubated for 48 hrs by annexin V FITC/propidium iodide staining based flow cytometry analysis (reference value: 1.74%); type: functional
HuTu80 [12] = assay: Induction of apoptosis in human HuTu80 cells assessed as early apoptotic cells at 10 uM incubated for 48 hrs by annexin V FITC/propidium iodide staining based flow cytometry analysis (reference value: 1.74%); type: functional
HuTu80 [13] = assay: Induction of apoptosis in human HuTu80 cells assessed as late apoptotic cells at 5 uM incubated for 48 hrs by annexin V FITC/propidium iodide staining based flow cytometry analysis (reference value: 0.00%); type: functional
HuTu80 [14] = assay: Induction of apoptosis in human HuTu80 cells assessed as late apoptotic cells at 10 uM incubated for 48 hrs by annexin V FITC/propidium iodide staining based flow cytometry analysis (reference value: 0.00%); type: functional
HuTu80 [15] = assay: Induction of apoptosis in human HuTu80 cells assessed as necrotic cells at 5 uM incubated for 48 hrs by annexin V FITC/propidium iodide staining based flow cytometry analysis (reference value: 4.56%); type: functional
HuTu80 [16] = assay: Induction of apoptosis in human HuTu80 cells assessed as necrotic cells at 10 uM incubated for 48 hrs by annexin V FITC/propidium iodide staining based flow cytometry analysis (reference value: 4.56%); type: functional
HuTu80 [17] = assay: Induction of cell cycle arrest in human HuTu80 cells assessed as accumulation of cell at G1/G0 phase at 5 uM measured after 48 hrs by propidium iodide staining based analysis (reference value: 72%); type: functional
HuTu80 [18] = assay: Induction of cell cycle arrest in human HuTu80 cells assessed as accumulation of cell at G1/G0 phase at 10 uM measured after 48 hrs by propidium iodide staining based analysis (reference value: 72%); type: functional
HuTu80 [19] = assay: Induction of cell cycle arrest in human HuTu80 cells assessed as accumulation of cell at G2/M phase at 5 uM measured after 48 hrs by propidium iodide staining based analysis (reference value: 18.7%); type: functional
HuTu80 [20] = assay: Induction of cell cycle arrest in human HuTu80 cells assessed as accumulation of cell at G2/M phase at 10 uM measured after 48 hrs by propidium iodide staining based analysis (reference value: 18.7%); type: functional
HuTu80 [21] = assay: Induction of cell cycle arrest in human HuTu80 cells assessed as accumulation of cell at S phase at 5 uM measured after 48 hrs by propidium iodide staining based analysis (reference value: 8.1%); type: functional
HuTu80 [22] = assay: Induction of cell cycle arrest in human HuTu80 cells assessed as accumulation of cell at S phase at 10 uM measured after 48 hrs by propidium iodide staining based analysis (reference value: 8.1%); type: functional
HuTu80 [23] = assay: Induction of ROS production in human HuTu80 cells assessed as increase in fluorescence intensity at 5 uM measured after 48 hrs by flow cytometry based analysis (reference value: 380); type: functional
HuTu80 [24] = assay: Induction of ROS production in human HuTu80 cells assessed as increase in fluorescence intensity at 10 uM measured after 48 hrs by flow cytometry based analysis (reference value: 380); type: functional
HuTu80 [25] = assay: Induction of mitochondrial membrane potential loss in human HuTu80 cells assessed as J-monomer green fluorescence intensity at 5 uM incubated for 24 hrs by JC10 staining based flow cytometry method (reference value: 5.7%); type: functional
HuTu80 [26] = assay: Induction of mitochondrial membrane potential loss in human HuTu80 cells assessed as J-monomer green fluorescence intensity at 10 uM incubated for 24 hrs by JC10 staining based flow cytometry method (reference value: 5.7%); type: functional
HuTu80 [27] = assay: Induction of mitochondrial membrane potential loss in human HuTu80 cells assessed as J-aggregates red fluorescence intensity at 5 uM incubated for 24 hrs by JC10 staining based flow cytometry method (reference value: 94.4%); type: functional
HuTu80 [28] = assay: Induction of mitochondrial membrane potential loss in human HuTu80 cells assessed as J-aggregates red fluorescence intensity at 10 uM incubated for 24 hrs by JC10 staining based flow cytometry method (reference value: 94.4%); type: functional
Staphylococcus aureus [29] = assay: Antimicrobial activity against Staphylococcus aureus ATCC 6538 P FDA 209P by serial microdilution method; type: functional
Bacillus cereus [30] = assay: Antimicrobial activity against Bacillus cereus ATCC 10702 NCTC 8035 by serial microdilution method; type: functional
Enterococcus faecalis [31] = assay: Antimicrobial activity against Enterococcus faecalis ATCC 29212 by serial microdilution method; type: functional
Escherichia coli [32] = assay: Antimicrobial activity against Escherichia coli ATCC 25922 by serial microdilution method; type: functional
Staphylococcus aureus [33] = assay: Bactericidal against Staphylococcus aureus ATCC 6538 P FDA 209P by serial microdilution method; type: functional
Enterococcus faecalis [34] = assay: Bactericidal activity against Enterococcus faecalis ATCC 29212 by serial microdilution method; type: functional
Escherichia coli [35] = assay: Bactericidal activity against Escherichia coli ATCC 25922 by serial microdilution method; type: functional
Homo sapiens [36] = species on record: Homo sapiens; assay: Selectivity index, ratio of IC50 for human WI-38 cells to IC50 for human HuTu80 cells
Bacillus cereus [37] = assay: Bactericidal activity against Bacillus cereus ATCC 10702 NCTC 8035 by serial microdilution method; type: functional

O=c1[nH]cc(F)c(=O)[nH]1 [FLUOROURACIL]
IC50 (M-HeLa): 62 µM
IC50 (HuTu80 [1]): 65.2 µM
IC50 (PANC-1): 100 µM
IC50 (A549): 32.4 µM
IC50 (PC-3): 10.3 µM
IC50 (SK-OV-3): 47.2 µM
IC50 at 48 h [2]: 62 µM
IC50 at 48 h [3]: 19 µM

CCCCC/C=C\C/C=C\CCCCCCCC(=O)OCC(O)COC(=O)CCCC[P+](c1ccccc1)(c1ccccc1)c1ccccc1.[Br-] (stereo not drawn)
IC50 (M-HeLa): 55.6 µM
IC50 (MCF7): 37.7 µM
IC50 (HuTu80 [1]): 9.5 µM
IC50 (PANC-1): 59 µM
IC50 (A549): 62.5 µM
IC50 (PC-3): 63.9 µM
IC50 (T98G): 98 µM
IC50 (HepG2): 76 µM
IC50 (SK-OV-3): 39.4 µM
IC50 (DU-145): 49.1 µM
IC50 at 48 h [2]: 56.6 µM
IC50 at 48 h [3]: 63 µM
Ratio IC50 (Homo sapiens [4]): 1.1
Ratio IC50 (Homo sapiens [5]): 1.7
Ratio IC50 (Homo sapiens [6]): 6.6
Ratio IC50 (Homo sapiens [7]): 1.6
Ratio IC50 (Homo sapiens [8]): 1.3
viability at 5 µM (HuTu80 [9]): 72.2%
viability at 10 µM (HuTu80 [10]): 56.2%
Activity (HuTu80 [11]): 3.99%
Activity (HuTu80 [12]): 5.67%
Activity (HuTu80 [13]): 13.1%
Activity (HuTu80 [14]): 19.59%
Activity (HuTu80 [15]): 10.7%
Activity (HuTu80 [16]): 18.56%
Activity (HuTu80 [17]): 81%
Activity (HuTu80 [18]): 82%
Activity (HuTu80 [19]): 11%
Activity (HuTu80 [20]): 9.3%
Activity (HuTu80 [21]): 5.7%
Activity (HuTu80 [22]): 5.4%
Flu intensity (HuTu80 [23]): 1000
Flu intensity (HuTu80 [24]): 1700
Activity (HuTu80 [25]): 26.1%
Activity (HuTu80 [26]): 38.1%
Activity (HuTu80 [27]): 73.9%
Activity (HuTu80 [28]): 61.9%
MIC (Staphylococcus aureus [29]): 5 µM
MIC (Bacillus cereus [30]): 20 µM
MIC (Enterococcus faecalis [31]): 20 µM
MIC (Escherichia coli [32]): 20 µM
MBC (Staphylococcus aureus [33]): 5 µM
MBC (Enterococcus faecalis [34]): 80 µM
MBC (Escherichia coli [35]): 80 µM

CCCCCCCC/C=C\CCCCCCCC(=O)OCC(O)COC(=O)CCCC[P+](c1ccccc1)(c1ccccc1)c1ccccc1.[Br-] (stereo not drawn)
IC50 (M-HeLa): 60.2 µM
IC50 (MCF7): 52.1 µM
IC50 (HuTu80 [1]): 10 µM
IC50 (PANC-1): 62.5 µM
IC50 (A549): 71.3 µM
IC50 (PC-3): 51 µM
IC50 (T98G): 62.5 µM
IC50 (HepG2): 100 µM
IC50 (SK-OV-3): 52 µM
IC50 (DU-145): 41 µM
IC50 at 48 h [2]: 53.1 µM
IC50 at 48 h [3]: 34 µM
Ratio IC50 (Homo sapiens [36]): 5.1
viability at 5 µM (HuTu80 [9]): 63.7%
viability at 10 µM (HuTu80 [10]): 37.6%
Activity (HuTu80 [11]): 3.35%
Activity (HuTu80 [12]): 4.78%
Activity (HuTu80 [13]): 15.18%
Activity (HuTu80 [14]): 33.13%
Activity (HuTu80 [15]): 17.73%
Activity (HuTu80 [16]): 24.48%
Activity (HuTu80 [17]): 84%
Activity (HuTu80 [18]): 87%
Activity (HuTu80 [19]): 3%
Activity (HuTu80 [20]): 1.1%
Activity (HuTu80 [21]): 2.1%
Activity (HuTu80 [22]): 1.2%
Flu intensity (HuTu80 [23]): 700
Flu intensity (HuTu80 [24]): 1500
Activity (HuTu80 [25]): 49%
Activity (HuTu80 [26]): 67.5%
Activity (HuTu80 [27]): 51.1%
Activity (HuTu80 [28]): 30.1%
MIC (Staphylococcus aureus [29]): 31.3 µM
MIC (Bacillus cereus [30]): 7.8 µM
MIC (Enterococcus faecalis [31]): 7.8 µM
MIC (Escherichia coli [32]): 125 µM
MBC (Staphylococcus aureus [33]): 500 µM
MBC (Bacillus cereus [37]): 500 µM
MBC (Enterococcus faecalis [34]): 125 µM
MBC (Escherichia coli [35]): 125 µM
